Test results published in patent US20260102380A1, “Synthesis and Characterization of Cyclic Hydrocarbon Esters of Everolimus” (BIOTRONIK AG, priority 2022, published 2026).
Several values for one entry are separate records, joined by “and”; a condition that tells them apart may be missing. Identical values can stand only once. Like-named read-outs stand apart in the source and are kept apart here.

Columns and labels:
[1] = Elution study on porcine coronary artery; conditions: for Percent of Drug Eluted Over Time: samples 1 and 2
Procedure: (§1) To examine the effects of certain formulations of the present invention on porcine coronary artery samples, the samples were each prepared as follows:
(§2) Elution Media Preparation: Normal saline was prepared by weighing 4.5 grams of sodium chloride into a 500 mL Pyrex® bottle. 495.5 grams HPLC water was added to the 500 ml bottle. The bottle was then capped and vigorously shaken. 25% ethanol/saline elution media was prepared by weighing 25.0 grams of ethanol (200 proof) into a 100 mL Pyrex® bottle. 75.0 grams of normal saline was added to the 100 ml bottle containing ethanol. The bottle was capped and vigorously shaken.
(§3) Elution Method: Porcine coronary arterial vessels were obtained and dissected from hearts obtained from the butcher shop. Coronary arteries were flash frozen with dry ice then stored at −80° C. When ready for testing, arteries were removed from the freezer and allowed to thaw at room temperature. Any fat and muscle tissue were carefully removed using scissors and tweezers. Vessels were rinsed several times with normal saline containing 0.05% sodium azide.
(§4) Vessels were then cut into 1 cm sections. 5 μL of formulation (approximately 125 μg of drug) was carefully added onto the outer part of the tissue using a 10 μL Hamilton® syringe. Ethanol was allowed to evaporate at room temperature for 15-20 minutes.
(§5) Tissue was then placed into a 7 mL glass vial. 2 mL elution media, previously warmed to 37° C., was added carefully to each vial using an Eppendorf® pipette. Each vial was capped and placed in a 37° C. incubator and gently shaken at 100 spm (strokes per minute).
(§6) At certain time points, elution media was removed and fresh 2 mL media (at 37° C.) was slowly added to the vial.
(§7) Drug formulations in ethanol were applied (approximately 125 μg) onto previously frozen “butcher shop” porcine coronary arterial vessel and allowed to dry after 15-20 minutes.

[2] = pig
Procedure: as §1, §2, §3, §4, §5, §6, §7

| Compound | Percent of Drug Eluted Over Time ([1]; 0.5 hours, approx. 125 μg drug on 1 cm vessel section, 25% ethanol/saline, 37° C.) | Percent of Drug Eluted Over Time ([1]; 1 hour, approx. 125 μg drug on 1 cm vessel section, 25% ethanol/saline, 37° C.) | Percent of Drug Eluted Over Time ([1]; 2 hours, approx. 125 μg drug on 1 cm vessel section, 25% ethanol/saline, 37° C.) | Percent of Drug Eluted Over Time ([1]; 3 hours, approx. 125 μg drug on 1 cm vessel section, 25% ethanol/saline, 37° C.) | Percent of Drug Eluted Over Time ([1]; 23 hours, approx. 125 μg drug on 1 cm vessel section, 25% ethanol/saline, 37° C.) | Percent of Drug Eluted Over Time ([1]; Extract (after extraction, following 23 hours of elution)) | Elution behavior from vessel tissue (in words) ([1]; porcine coronary arterial tissue, 25% ethanol/saline, 37° C.) | Elution behavior from vessel tissue (in words) [2] | Time within which most of the drug eluted off the tissue [2] [h] |
| --- | --- | --- | --- | --- | --- | --- | --- | --- | --- |
| CO[C@H]1C[C@@H]2CC[C@@H](C)[C@@](O)(O2)C(=O)C(=O)N2CCCC[C@H]2C(=O)O[C@H]([C@H](C)C[C@@H]2CC[C@@H](OCCO)[C@H](OC)C2)CC(=O)[C@H](C)/C=C(\C)[C@@H](O)[C@@H](OC)C(=O)[C@H](C)C[C@H](C)/C=C/C=C/C=C/1C [Everolimus] | 77% and 71% | 86% and 76% | 87% and 79% | 88% and 80% | 89% and 80% | 89% and 81% | eluting significantly faster than CRC-023 |  |  |
| CO[C@H]1C[C@@H]2CC[C@@H](C)[C@@](O)(O2)C(=O)C(=O)N2CCCC[C@H]2C(=O)O[C@H]([C@H](C)C[C@@H]2CC[C@@H](O)[C@H](OC)C2)CC(=O)[C@H](C)/C=C(\C)[C@@H](O)[C@@H](OC)C(=O)[C@H](C)C[C@H](C)/C=C/C=C/C=C/1C [Sirolimus] |  |  |  |  |  |  |  | eluting significantly faster than CRC-023 | ≤ 2 |
